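Following 48 hours of exposure in 96-well plates, responses at five concentrations were used to interpolate endpoints linearly. GI50 marks 50% less growth.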 Calls of active or inactive are those of the source. Rule as the data show it: active = GI50 up to about 1.1 µM and inactive = higher.
Tests used:
Assay in all cases: NCI-60 cell line screen, 48 h
A498 = test system: A498
M14 = test system: M14
TK-10 = test system: TK-10
SK-MEL-2 = test system: SK-MEL-2
HOP-92 = test system: HOP-92
NCI-H226 = test system: NCI-H226
SF-539 = test system: SF-539
RXF 393 = test system: RXF 393
SR = test system: SR
UO-31 = test system: UO-31
SK-MEL-5 = test system: SK-MEL-5
OVCAR-5 = test system: OVCAR-5
SNB-19 = test system: SNB-19
SW-620 = test system: SW-620
SF-268 = test system: SF-268
HCT-15 = test system: HCT-15
786-0 = test system: 786-0
HL-60 = test system: HL-60
SK-OV-3 = test system: SK-OV-3

SMILES	GI50 (A498)	GI50 (M14)	GI50 (TK-10)	GI50 (SK-MEL-2)	GI50 (HOP-92)	GI50 (NCI-H226)	GI50 (SF-539)	GI50 (RXF 393)	GI50 (SR)	GI50 (UO-31)	GI50 (SK-MEL-5)	GI50 (OVCAR-5)	GI50 (SNB-19)	GI50 (SW-620)	GI50 (SF-268)	GI50 (HCT-15) [µM]	GI50 (786-0)	GI50 (HL-60)	GI50 (SK-OV-3)
O=C1Cc2ccccc2CCc2ccccc21	> 100 µM (inactive)	> 100 µM (inactive)	> 100 µM (inactive)	64.1 µM (inactive)	35.6 µM (inactive)	> 100 µM (inactive)	> 100 µM (inactive)	> 100 µM (inactive)	> 100 µM (inactive)	45.4 µM (inactive)	> 100 µM (inactive)	> 100 µM (inactive)	> 100 µM (inactive)	> 100 µM (inactive)	> 100 µM (inactive)	> 100	> 100 µM (inactive)	> 100 µM (inactive)	> 100 µM (inactive)
O=C(c1ccccc1)c1ccc(OCCOc2ccc(Nc3ccccc3)cc2)cc1	27.4 µM (inactive)	49.5 µM (inactive)	28.6 µM (inactive)	38.3 µM (inactive)	27.3 µM (inactive)	33.6 µM (inactive)	24.5 µM (inactive)	35.2 µM (inactive)	> 100 µM (inactive)	> 100 µM (inactive)	21.9 µM (inactive)	> 100 µM (inactive)	27.7 µM (inactive)	> 100 µM (inactive)	27.3 µM (inactive)	74.6	25 µM (inactive)		22.9 µM (inactive)
O=[N+]([O-])c1ccc(-c2ccc(C3=Nn4c(nnc4-c4ccc(Cl)cc4)SC3)o2)cc1	92.7 µM (inactive)	> 100 µM (inactive)	23.4 µM (inactive)	99.3 µM (inactive)	38.5 µM (inactive)	> 100 µM (inactive)	> 100 µM (inactive)		> 100 µM (inactive)	> 100 µM (inactive)	> 100 µM (inactive)	> 100 µM (inactive)	30.3 µM (inactive)	> 100 µM (inactive)	> 100 µM (inactive)	> 92.5	31.4 µM (inactive)	> 59 µM (inactive)	> 82.4 µM (inactive)
C/C(CCc1ccccc1)=N\NC(N)=S	> 100 µM (inactive)	> 100 µM (inactive)	> 100 µM (inactive)	> 100 µM (inactive)	> 100 µM (inactive)	> 100 µM (inactive)	37.2 µM (inactive)	42.3 µM (inactive)	75.2 µM (inactive)	> 100 µM (inactive)	95.3 µM (inactive)	> 100 µM (inactive)		> 100 µM (inactive)	> 100 µM (inactive)	> 100	> 100 µM (inactive)	> 100 µM (inactive)	> 100 µM (inactive)
CCOC(=O)NC(=O)c1cn(-c2ccc(CCOC(=O)CCCCCCCCC(=O)OCCc3ccc(-n4cc(C(=O)NC(=O)OCC)c(=O)[nH]c4=O)cc3)cc2)c(=O)[nH]c1=O		> 100 µM (inactive)	42.8 µM (inactive)	> 100 µM (inactive)	26 µM (inactive)	> 100 µM (inactive)	> 100 µM (inactive)	> 100 µM (inactive)	> 100 µM (inactive)	> 100 µM (inactive)	> 100 µM (inactive)	> 100 µM (inactive)	59 µM (inactive)	> 100 µM (inactive)	> 100 µM (inactive)	> 100	> 100 µM (inactive)	> 100 µM (inactive)	> 100 µM (inactive)
O=c1ncccn1C1C=C(CO)C(O)C1O (stereo unspecified)	> 50 µM (inactive)	> 50 µM (inactive)	> 50 µM (inactive)	> 50 µM (inactive)	> 50 µM (inactive)	> 50 µM (inactive)	> 50 µM (inactive)			> 50 µM (inactive)	> 50 µM (inactive)	> 50 µM (inactive)	> 50 µM (inactive)	> 50 µM (inactive)	> 50 µM (inactive)	> 50	> 50 µM (inactive)	> 50 µM (inactive)	> 50 µM (inactive)
CC1=C(NC(=O)/C(=N/NC(=S)NN)C2C(=O)CC(C)(C)CC2=O)C(=O)c2ccccc2C1=O	20.9 µM (inactive)	6.47 µM (inactive)	16.1 µM (inactive)	6.14 µM (inactive)		14 µM (inactive)	3.6 µM (inactive)	17.9 µM (inactive)	3.61 µM (inactive)	12.8 µM (inactive)	2.15 µM (inactive)	22.4 µM (inactive)	13 µM (inactive)	8.49 µM (inactive)	8.18 µM (inactive)	6	10.9 µM (inactive)	3.41 µM (inactive)	19.8 µM (inactive)
Oc1ccc(-c2c3ccccc3c(-c3ccc(O)cc3)c3ccccc23)cc1	> 100 µM (inactive)	> 100 µM (inactive)	> 100 µM (inactive)	> 100 µM (inactive)	> 100 µM (inactive)	> 100 µM (inactive)	> 100 µM (inactive)	> 100 µM (inactive)	64.3 µM (inactive)	> 100 µM (inactive)	> 100 µM (inactive)	> 100 µM (inactive)	> 100 µM (inactive)	> 100 µM (inactive)	> 100 µM (inactive)	> 100	> 100 µM (inactive)	> 100 µM (inactive)	> 100 µM (inactive)
O=C1Oc2cc3c(c4cccc1c24)OCN(c1ccccc1)C3	> 100 µM (inactive)	> 100 µM (inactive)	> 100 µM (inactive)	> 100 µM (inactive)	41.7 µM (inactive)			> 100 µM (inactive)	44.8 µM (inactive)	> 100 µM (inactive)	> 100 µM (inactive)	> 100 µM (inactive)	> 100 µM (inactive)	83.9 µM (inactive)	> 100 µM (inactive)	79.1	> 100 µM (inactive)	43.5 µM (inactive)	> 100 µM (inactive)
O=C(c1nc2ccccc2nc1O)C(O)c1ccccc1 (stereo unspecified)	39.5 µM (inactive)	> 100 µM (inactive)	> 100 µM (inactive)	> 100 µM (inactive)	63.7 µM (inactive)	76.7 µM (inactive)	44.1 µM (inactive)		86.1 µM (inactive)	94.8 µM (inactive)	> 100 µM (inactive)	> 100 µM (inactive)	> 100 µM (inactive)	86.9 µM (inactive)	86.7 µM (inactive)	96.2	> 100 µM (inactive)	61.7 µM (inactive)	> 100 µM (inactive)
COc1c(CC(C)=O)c2ccccc2n1C(C)=O	> 100 µM (inactive)	> 100 µM (inactive)		> 100 µM (inactive)	> 100 µM (inactive)		> 100 µM (inactive)	> 100 µM (inactive)	> 100 µM (inactive)	> 100 µM (inactive)			> 100 µM (inactive)	> 100 µM (inactive)		> 100	> 100 µM (inactive)	> 100 µM (inactive)	> 100 µM (inactive)
COC1C2c3ccccc3C(C#N)(Cc3ccc4c(c32)OCO4)N1C(=O)c1ccccc1 (stereo unspecified)		26.6 µM (inactive)	> 100 µM (inactive)	46.8 µM (inactive)	> 100 µM (inactive)	12.5 µM (inactive)	> 100 µM (inactive)	16.3 µM (inactive)	14.3 µM (inactive)	31.7 µM (inactive)	3.76 µM (inactive)	> 100 µM (inactive)	46.6 µM (inactive)	32.8 µM (inactive)	> 100 µM (inactive)	17.1	98.6 µM (inactive)	8.57 µM (inactive)	35.3 µM (inactive)
C/C(CC(=O)Nc1cccc(Cl)c1C)=N\NC(N)=S	> 100 µM (inactive)	> 100 µM (inactive)	> 100 µM (inactive)	> 100 µM (inactive)	30.1 µM (inactive)	> 100 µM (inactive)	> 100 µM (inactive)	> 100 µM (inactive)		> 100 µM (inactive)	> 100 µM (inactive)	> 100 µM (inactive)		> 100 µM (inactive)	> 100 µM (inactive)		> 100 µM (inactive)	> 100 µM (inactive)	> 100 µM (inactive)
C#CCSc1nc(N)c2ncn(C3OC(CO)C(O)C3O)c2n1 (stereo unspecified)	> 100 µM (inactive)		> 100 µM (inactive)					> 100 µM (inactive)	> 100 µM (inactive)	> 100 µM (inactive)	> 100 µM (inactive)		> 100 µM (inactive)	> 100 µM (inactive)	> 100 µM (inactive)	> 100	> 100 µM (inactive)	> 100 µM (inactive)	
CN(CCO)c1nc(N)cc(=O)[nH]1		> 100 µM (inactive)	> 100 µM (inactive)	> 100 µM (inactive)	> 100 µM (inactive)	> 100 µM (inactive)	> 100 µM (inactive)	> 100 µM (inactive)	> 100 µM (inactive)	> 100 µM (inactive)	> 100 µM (inactive)	> 100 µM (inactive)	> 100 µM (inactive)	> 100 µM (inactive)	> 100 µM (inactive)	> 100	> 100 µM (inactive)	> 100 µM (inactive)	> 100 µM (inactive)
Cc1ccc(NC(=O)CC2C(=O)Nc3ccccc3S2(=O)=O)c(C)c1 (stereo unspecified)	14.8 µM (inactive)	11.2 µM (inactive)	25.9 µM (inactive)	29 µM (inactive)	15 µM (inactive)	17 µM (inactive)	15.5 µM (inactive)	17 µM (inactive)	1.8 µM (inactive)	18.8 µM (inactive)	4.78 µM (inactive)	24.7 µM (inactive)	14 µM (inactive)	5.21 µM (inactive)	20.3 µM (inactive)	8.32	18.3 µM (inactive)	2.77 µM (inactive)	

From ChEMBL document CHEMBL1201862, “PubChem BioAssay data set” (2004)
